The record followed here is patent US8871754B2, “Compounds and compositions for the treatment of parasitic diseases” (IRM LLC, priority 2012, dated 2014).

A value given as a limit tells only on which side of the number the result lay.

One assay has as its system P. falciparum (NF54 or 3D7 strain) in infected human erythrocytes. Nature of the assay: Assay for P. falciparum proliferation in infected human blood cells (SYBR Green). Type of assay: cell-based. The note with it: Plasmodium falciparum, Erythrocyte, 72 h, read-out: EC50 (nM), inhibitory efficacy in delaying P. falciparum proliferation in infected human blood cells. As to the method: Assay for P. falciparum Proliferation in Infected Human Blood Cells
Compounds of the invention can be assayed to measure their capacity to inhibit proliferation of P. falciparum parasitemia in infected red blood cells. This parasite proliferation assay measures the increase in parasite DNA content using a DNA intercalating dye, SYBR Green® (INVITROGEN®) which has a high affinity for double stranded DNA.
NF54 or 3D7 P. falciparum strain is grown in complete culturing media until parasitemia reaches 3% to 8% with O+ human erythrocytes. […] 20 μl of screening media is dispensed into 384 well assay plates. 50 nl of compounds of the invention (in DMSO), including antimalarial controls (mefloquine, pyrimethamine and artemisinin), are then transferred into the assay plates, as well as DMSO alone to serve as a negative control for inhibition. Then 30 μl of a suspension of a NF54 or 3D7 P. falciparum infected erythrocytes in screening media is dispensed into the assay plates such that the final hematocrit is 2.5% with a final parasitemia of 0.3%. The plates are placed in a 37° C. incubator for 72 hours in a low oxygen environment containing 93% N2, 4% CO2, and 3% O2 gas mixture. 10 μl of lysis buffer (saponin, triton-X, EDTA) containing a 10× solution of SYBR Green I® in RPMI media is dispensed into the plates. The plates are lidded and kept at room temperature overnight for the lysis of the infected red blood cells. The fluorescence intensity is measured (excitation […], emission 530 nm) using the Envision™ system (Perkin Elmer). The percentage inhibition of 50%, […], is calculated for each compound.
`Fc1ccc(CCc2ccn3ncc(-c4ccc(C(F)(F)F)cc4)c3c2)cc1` [Example 16, 5-(4-fluorophenethyl)-3-(4-(trifluoromethyl)phenyl)pyrazolo[1,5-a]pyridine]: the EC50 was found to be 477 nM.

Staying with this assay, now noted: Plasmodium falciparum, Erythrocyte; NF54 or 3D7 strain, 72 hours, SYBR Green fluorescence; read-out: EC50 (nM), inhibitory efficacy in delaying P. falciparum proliferation in infected human blood cells.
On to `CN(C(=O)c1ccn2ncc(-c3cnc(N)nc3)c2c1)c1ccc(C#N)cc1` [Example 83, 3-(2-aminopyrimidin-5-yl)-N-(4-cyanophenyl)-N-methylpyrazolo[1,5-a]pyridine-5-carboxamide], for which the EC50 was found to be 4 nM. For the molecule `CN(C(=O)c1ccn2ncc(-c3ccc4c(cnn4C)c3)c2c1)c1ccc(C#N)cc1` [Example 17, N-(4-cyanophenyl)-N-methyl-3-(1-methyl-1H-indazol-5-yl)pyrazolo[1,5-a]pyridine-5-carboxamide], the EC50 was determined as 3 nM. Regarding `NC(=O)c1ccc(-c2cnn3ccc(C(=O)N4CCOc5cc(F)ccc54)cc23)cc1` [Example 71, 4-(5-(7-fluoro-3,4-dihydro-2H-benzo[b][1,4]oxazine-4-carbonyl)pyrazolo[1,5-a]pyridin-3-yl)benzamide], the EC50 stood at 3 nM. `CNc1nnc(-c2ccc(-c3cnn4ccc(N(C)C(=O)c5ccc(F)cc5)cc34)cc2)s1` [Example 57, 4-fluoro-N-methyl-N-(3-(4-(5-(methylamino)-1,3,4-thiadiazol-2-yl)phenyl)pyrazolo[1,5-a]pyridin-5-yl)benzamide]: the EC50 worked out at 4 nM. Regarding `C[C@@H](N)C(=O)Nc1ccc(-c2cnn3ccc(C(=O)N(C)c4ccc(C#N)cc4)cc23)cc1` [Example 44, (R)-3-(4-(2-aminopropanamido)phenyl)-N-(4-cyanophenyl)-N-methylpyrazolo[1,5-a]pyridine-5-carboxamide], the EC50 is 1 nM. With `Fc1ccc(OCc2ccn3ncc(-c4ccc(C(F)(F)F)cc4)c3c2)cc1` [Example 8, 5-((4-fluorophenoxy)methyl)-3-(4-(trifluoromethyl)phenyl)pyrazolo[1,5-a]pyridine], the EC50 was found to be 532 nM. Consider `CC(C)[C@H](N)C(=O)Nc1ccc(-c2cnn3ccc(C(=O)N(C)c4ccc(C#N)cc4)cc23)cc1` [Example 45, (S)-3-(4-(2-amino-3-methylbutanamido)phenyl)-N-(4-cyanophenyl)-N-methylpyrazolo[1,5-a]pyridine-5-carboxamide], for which the EC50 was 16 nM. On the same count and under the same terms, for `[O-][S+](Cc1ccn2ncc(-c3ccc(C(F)(F)F)cc3)c2c1)c1ccc(F)cc1` (stereo not shown) [Example 22, 5-(((4-fluorophenyl)sulfinyl)methyl)-3-(4-(trifluoromethyl)phenyl)pyrazolo[1,5-a]pyridine] the value was 25 nM; for `CC(c1ccn2ncc(-c3ccc(C(N)=O)cc3)c2c1)N1C(=O)COc2cc(F)ccc21` (stereo not shown) [Example 66, 4-(5-(1-(7-fluoro-3-oxo-2H-benzo[b][1,4]oxazin-4(3H)-yl)ethyl)pyrazolo[1,5-a]pyridin-3-yl)benzamide], 49 nM; for `CC1COc2cc(F)ccc2N1C(=O)c1ccn2ncc(-c3ccc(C(N)=O)cc3)c2c1` (stereo not shown) [Example 72, 4-(5-(7-fluoro-3-methyl-3,4-dihydro-2H-benzo[b][1,4]oxazine-4-carbonyl)pyrazolo[1,5-a]pyridin-3-yl)benzamide], 5 nM. As to `CC(=O)Nc1ccc(-c2cnn3ccc(C(C)N(C)c4ccc(C)cn4)cc23)cc1` (stereo not shown) [Example 68, N-(4-(5-(1-(methyl(5-methylpyridin-2-yl)amino)ethyl)pyrazolo[1,5-a]pyridin-3-yl)phenyl)acetamide], the EC50 worked out at 6750 nM. For the molecule `CN(C(=O)c1ccc(Cl)cc1)c1ccn2ncc(-c3ccc(C(F)(F)F)cc3)c2c1` [Example 55, 4-chloro-N-methyl-N-(3-(4-(trifluoromethyl)phenyl)pyrazolo[1,5-a]pyridin-5-yl)benzamide], the EC50 was determined as 32 nM.

As for `CN(C(=O)c1ccn2ncc(-c3ccc(C(N)=O)cc3)c2c1)c1ccc(Cl)cc1C=O` [Example 89, 3-(4-carbamoylphenyl)-N-(4-chloro-2-formylphenyl)-N-methylpyrazolo[1,5-a]pyridine-5-carboxamide], the EC50 was 6 nM. As for `N#Cc1ccc(C(=O)N(CC2CCOCC2)c2ccn3ncc(-c4ccc(C(F)(F)F)cc4)c3c2)cc1` [Example 39, 4-cyano-N-((tetrahydro-2H-pyran-4-yl)methyl)-N-(3-(4-(trifluoromethyl)phenyl)pyrazolo[1,5-a]pyridin-5-yl)benzamide], the EC50 amounted to 831 nM. Turning to `CS(=O)(=O)c1ccc(N(CC2CCOCC2)C(=O)c2ccn3ncc(-c4ccc(C(F)(F)F)cc4)c3c2)cc1` [Example 12, N-(4-(methylsulfonyl)phenyl)-N-((tetrahydro-2H-pyran-4-yl)methyl)-3-(4-(trifluoromethyl)phenyl)pyrazolo[1,5-a]pyridine-5-carboxamide], the EC50 turned out to be 9 nM. For the molecule `CNC(=O)c1ccc(-c2cnn3ccc(C(=O)N4CCOc5cc(F)ccc54)cc23)cc1` [Example 73, 4-(5-(7-fluoro-3,4-dihydro-2H-benzo[b][1,4]oxazine-4-carbonyl)pyrazolo[1,5-a]pyridin-3-yl)-N-methylbenzamide], the EC50 was above 10000 nM.

For `Cc1ccc(N(C)Cc2ccn3ncc(-c4ccc(C(F)(F)F)cc4)c3c2)nc1` [Example 7, N,5-dimethyl-N-((3-(4-(trifluoromethyl)phenyl)pyrazolo[1,5-a]101yridine-5-yl)methyl)pyridine-2-amine], the EC50 is 975 nM. As to `Fc1ccc(CNc2ccn3ncc(-c4ccc(C(F)(F)F)cc4)c3c2)cc1` [Example 35, N-(4-fluorobenzyl)-3-(4-(trifluoromethyl)phenyl)pyrazolo[1,5-a]pyridine-5-amine], the EC50 was found to be 2040 nM. In the case of `CN(C(=O)c1ccn2ncc(-c3ccc(C(F)(F)F)cc3)c2c1)c1ccc(C(F)(F)F)cn1` [Example 33, N-methyl-3-(4-(trifluoromethyl)phenyl)-N-(5-(trifluoromethyl)pyridine-2-yl)pyrazolo[1,5-a]pyridine-5-carboxamide], the EC50 turned out to be 59 nM. `Cc1cc(-c2cnn3ccc(C(=O)N(C)c4ccc(C#N)cc4)cc23)cc(C)c1N` [Example 80, 3-(4-amino-3,5-dimethylphenyl)-N-(4-cyanophenyl)-N-methylpyrazolo[1,5-a]pyridine-5-carboxamide]: the EC50 came out at 824 nM. Consider `CN(c1ccn2ncc(-c3ccc(C(F)(F)F)cc3)c2c1)S(=O)(=O)c1ccc(C#N)cc1` [Example 30, 4-cyano-N-methyl-N-(3-(4-(trifluoromethyl)phenyl)pyrazolo[1,5-a]pyridine-5-yl)benzenesulfonamide], for which the EC50 was determined as 62 nM.

For the molecule `CN(c1ccn2ncc(-c3ccc(C(F)(F)F)cc3)c2c1)S(=O)(=O)c1ccc(F)cc1` [Example 31, 4-fluoro-N-methyl-N-(3-(4-(trifluoromethyl)phenyl)pyrazolo[1,5-a]pyridine-5-yl)benzenesulfonamide], the EC50 was determined as 143 nM.

In the case of `Fc1ccc(SCc2ccn3ncc(-c4ccc(C(F)(F)F)cc4)c3c2)cc1` [Example 21, 5-(((4-fluorophenyl)thio)methyl)-3-(4-(trifluoromethyl)phenyl)pyrazolo[1,5-a]pyridine], the EC50 was 472 nM. Still for that read-out and setting: for `CC(Cn1cccn1)N(C(=O)c1ccn2ncc(-c3ccc(C(N)=O)cc3)c2c1)c1ccc(C#N)cn1` (stereo not shown) [Example 77, N-(1-(1H-pyrazol-1-yl)propan-2-yl)-3-(4-carbamoylphenyl)-N-(5-cyanopyridin-2-yl)pyrazolo[1,5-a]pyridine-5-carboxamide] the value was 146 nM. Consider `CN(Cc1ccc(F)cc1)c1ccn2ncc(-c3ccc(C(F)(F)F)cc3)c2c1` [Example 36, N-(4-fluorobenzyl)-N-methyl-3-(4-(trifluoromethyl)phenyl)pyrazolo[1,5-a]pyridine-5-amine], for which the EC50 stood at 390 nM. On the same count and under the same terms, next, `CN(C(=O)c1ccc(F)cn1)c1ccn2ncc(-c3ccc(C(F)(F)F)cc3)c2c1` [Example 51, 5-fluoro-N-methyl-N-(3-(4-(trifluoromethyl)phenyl)pyrazolo[1,5-a]pyridin-5-yl)picolinamide]: 60 nM; `CN(C(=O)c1ccn2ncc(-c3ccc(C(F)(F)F)cc3)c2c1)c1ccc(Cl)cc1` [Example 3, N-(4-chlorophenyl)-N-methyl-3-(4-(trifluoromethyl)phenyl)pyrazolo[1,5-a]pyridine-5-carboxamide]: 94 nM.
